Results: US6887712B1, “Methods and compositions to lower plasma cholesterol levels” (AtheroGenics, Inc., priority 1998, dated 2005)

Assays:
[1] = target: T1, specific epitope on apoB-100 of LDL (Homo sapiens, UniProt P04114); test: Immunoreactivity cell-free sandwich ELISA: binding of LDL to capture anti-apoB monoclonal antibody
T1 construct: from tissue; host or cells: LDL particles (plasma lipoprotein)
Description: To determine if the binding of the monosuccinic acid ester to VLDL and LDL can cause a change in the structure of apoB-100, an immunoreactivity assay was designed. This is a sandwich ELISA assay which measures the expression of a specific epitope on apoB-100. Essentially the sandwich ELISA consists of a specific monoclonal antibody directed to that epitope on apoB-100 as a capture antibody laid onto a microtitre plate. […] A second polyclonal antibody is then used to quantify the amount of LDL captured.
The detailed immunoreactivity protocol is as follows. A nunc maxi-sorp microtiter plate is coated overnight at 4° C. with 100 μl of Anti-Human ApoB monoclonal antibody from Boehringer Mannheim (catalog # 1533 975) diluted 1:1000 in PBS pH 7.4. The compounds are dissolved in DMSO with appropriate concentration of LDL for 15 minutes and incubated at 37° C.
The coated microtiter plate is washed three times with 200 μl PBS/0.05% tween, and a sample of 100 μl LDL/Compound or LDL standard is added to each well. The plates are then incubated for 2 hours at room temperature.
The microtiter plate is washed three times with 200 μl PBS/0.05% tween, and 100 μl of 1:2000 Polyclonal Human Anti-ApolipoproteinB from Boehringer Mannheim (catalog # 726 494) in PBS/tween 0.05% is added. The plate is incubated for one hour at room temperature.
The microtiter plate is washed three times with 200 ul PBS/0.05% tween, and 100 μl of 1:2000 Anti-Sheep Ig peroxidase from Boehringer Mannheim (catalog # 605 345) in PBS/05% tween is added. The plate is incubated for one hour at room temperature.
The microtiter plate is washed three times with 200 ul PBS/0.05% tween, and 100 μl of TMB substrate is added and incubated for 5-10 minutes in the dark. The reaction is stopped with 15 μl 8N H2SO4 and read on the Bio-Rad Microplate plate reader at 450 nm within 30 minutes.

plasma cholesterol = test: Plasma cholesterol lowering in hamsters; set-up: species or system hamster; conditions: ability to lower plasma cholesterol in vivo in hamsters, yes/no
Protocol: The monosuccinic acid ester of probucol and several other compounds were tested in vitro in the immunoreactivity cell-free assay described above in Example 3 and in vivo in hamsters for their ability to lower plasma cholesterol.

total plasma cholesterol = test: Cholesterol lowering in mice lacking functional LDL receptors; assay type: in vivo, mouse; conditions: LDL receptor-deficient mice, 150 mg/kg/day oral with high fat/high cholesterol diet, 12 weeks
Protocol: To explore whether the enhanced clearance is mediated by the tissue LDL receptors, the major clearance mechanism for LDL in the body, the LDL lowering activity of the monosuccinic acid ester of probucol was tested in a mouse model that lacks functional LDL receptors (eliminated through genetic engineering).

[2] = target: T2, other epitopes on LDL apoB-100 (Homo sapiens, UniProt P04114); test: Epitope specificity: four other monoclonal antibodies (1D, 2D8, 5E11, 4G3) against apoB-100 on LDL; assay type: binding
T2 construct: from tissue; host or cells: LDL particles (plasma lipoprotein)
T2 sequence (P04114 28-4563): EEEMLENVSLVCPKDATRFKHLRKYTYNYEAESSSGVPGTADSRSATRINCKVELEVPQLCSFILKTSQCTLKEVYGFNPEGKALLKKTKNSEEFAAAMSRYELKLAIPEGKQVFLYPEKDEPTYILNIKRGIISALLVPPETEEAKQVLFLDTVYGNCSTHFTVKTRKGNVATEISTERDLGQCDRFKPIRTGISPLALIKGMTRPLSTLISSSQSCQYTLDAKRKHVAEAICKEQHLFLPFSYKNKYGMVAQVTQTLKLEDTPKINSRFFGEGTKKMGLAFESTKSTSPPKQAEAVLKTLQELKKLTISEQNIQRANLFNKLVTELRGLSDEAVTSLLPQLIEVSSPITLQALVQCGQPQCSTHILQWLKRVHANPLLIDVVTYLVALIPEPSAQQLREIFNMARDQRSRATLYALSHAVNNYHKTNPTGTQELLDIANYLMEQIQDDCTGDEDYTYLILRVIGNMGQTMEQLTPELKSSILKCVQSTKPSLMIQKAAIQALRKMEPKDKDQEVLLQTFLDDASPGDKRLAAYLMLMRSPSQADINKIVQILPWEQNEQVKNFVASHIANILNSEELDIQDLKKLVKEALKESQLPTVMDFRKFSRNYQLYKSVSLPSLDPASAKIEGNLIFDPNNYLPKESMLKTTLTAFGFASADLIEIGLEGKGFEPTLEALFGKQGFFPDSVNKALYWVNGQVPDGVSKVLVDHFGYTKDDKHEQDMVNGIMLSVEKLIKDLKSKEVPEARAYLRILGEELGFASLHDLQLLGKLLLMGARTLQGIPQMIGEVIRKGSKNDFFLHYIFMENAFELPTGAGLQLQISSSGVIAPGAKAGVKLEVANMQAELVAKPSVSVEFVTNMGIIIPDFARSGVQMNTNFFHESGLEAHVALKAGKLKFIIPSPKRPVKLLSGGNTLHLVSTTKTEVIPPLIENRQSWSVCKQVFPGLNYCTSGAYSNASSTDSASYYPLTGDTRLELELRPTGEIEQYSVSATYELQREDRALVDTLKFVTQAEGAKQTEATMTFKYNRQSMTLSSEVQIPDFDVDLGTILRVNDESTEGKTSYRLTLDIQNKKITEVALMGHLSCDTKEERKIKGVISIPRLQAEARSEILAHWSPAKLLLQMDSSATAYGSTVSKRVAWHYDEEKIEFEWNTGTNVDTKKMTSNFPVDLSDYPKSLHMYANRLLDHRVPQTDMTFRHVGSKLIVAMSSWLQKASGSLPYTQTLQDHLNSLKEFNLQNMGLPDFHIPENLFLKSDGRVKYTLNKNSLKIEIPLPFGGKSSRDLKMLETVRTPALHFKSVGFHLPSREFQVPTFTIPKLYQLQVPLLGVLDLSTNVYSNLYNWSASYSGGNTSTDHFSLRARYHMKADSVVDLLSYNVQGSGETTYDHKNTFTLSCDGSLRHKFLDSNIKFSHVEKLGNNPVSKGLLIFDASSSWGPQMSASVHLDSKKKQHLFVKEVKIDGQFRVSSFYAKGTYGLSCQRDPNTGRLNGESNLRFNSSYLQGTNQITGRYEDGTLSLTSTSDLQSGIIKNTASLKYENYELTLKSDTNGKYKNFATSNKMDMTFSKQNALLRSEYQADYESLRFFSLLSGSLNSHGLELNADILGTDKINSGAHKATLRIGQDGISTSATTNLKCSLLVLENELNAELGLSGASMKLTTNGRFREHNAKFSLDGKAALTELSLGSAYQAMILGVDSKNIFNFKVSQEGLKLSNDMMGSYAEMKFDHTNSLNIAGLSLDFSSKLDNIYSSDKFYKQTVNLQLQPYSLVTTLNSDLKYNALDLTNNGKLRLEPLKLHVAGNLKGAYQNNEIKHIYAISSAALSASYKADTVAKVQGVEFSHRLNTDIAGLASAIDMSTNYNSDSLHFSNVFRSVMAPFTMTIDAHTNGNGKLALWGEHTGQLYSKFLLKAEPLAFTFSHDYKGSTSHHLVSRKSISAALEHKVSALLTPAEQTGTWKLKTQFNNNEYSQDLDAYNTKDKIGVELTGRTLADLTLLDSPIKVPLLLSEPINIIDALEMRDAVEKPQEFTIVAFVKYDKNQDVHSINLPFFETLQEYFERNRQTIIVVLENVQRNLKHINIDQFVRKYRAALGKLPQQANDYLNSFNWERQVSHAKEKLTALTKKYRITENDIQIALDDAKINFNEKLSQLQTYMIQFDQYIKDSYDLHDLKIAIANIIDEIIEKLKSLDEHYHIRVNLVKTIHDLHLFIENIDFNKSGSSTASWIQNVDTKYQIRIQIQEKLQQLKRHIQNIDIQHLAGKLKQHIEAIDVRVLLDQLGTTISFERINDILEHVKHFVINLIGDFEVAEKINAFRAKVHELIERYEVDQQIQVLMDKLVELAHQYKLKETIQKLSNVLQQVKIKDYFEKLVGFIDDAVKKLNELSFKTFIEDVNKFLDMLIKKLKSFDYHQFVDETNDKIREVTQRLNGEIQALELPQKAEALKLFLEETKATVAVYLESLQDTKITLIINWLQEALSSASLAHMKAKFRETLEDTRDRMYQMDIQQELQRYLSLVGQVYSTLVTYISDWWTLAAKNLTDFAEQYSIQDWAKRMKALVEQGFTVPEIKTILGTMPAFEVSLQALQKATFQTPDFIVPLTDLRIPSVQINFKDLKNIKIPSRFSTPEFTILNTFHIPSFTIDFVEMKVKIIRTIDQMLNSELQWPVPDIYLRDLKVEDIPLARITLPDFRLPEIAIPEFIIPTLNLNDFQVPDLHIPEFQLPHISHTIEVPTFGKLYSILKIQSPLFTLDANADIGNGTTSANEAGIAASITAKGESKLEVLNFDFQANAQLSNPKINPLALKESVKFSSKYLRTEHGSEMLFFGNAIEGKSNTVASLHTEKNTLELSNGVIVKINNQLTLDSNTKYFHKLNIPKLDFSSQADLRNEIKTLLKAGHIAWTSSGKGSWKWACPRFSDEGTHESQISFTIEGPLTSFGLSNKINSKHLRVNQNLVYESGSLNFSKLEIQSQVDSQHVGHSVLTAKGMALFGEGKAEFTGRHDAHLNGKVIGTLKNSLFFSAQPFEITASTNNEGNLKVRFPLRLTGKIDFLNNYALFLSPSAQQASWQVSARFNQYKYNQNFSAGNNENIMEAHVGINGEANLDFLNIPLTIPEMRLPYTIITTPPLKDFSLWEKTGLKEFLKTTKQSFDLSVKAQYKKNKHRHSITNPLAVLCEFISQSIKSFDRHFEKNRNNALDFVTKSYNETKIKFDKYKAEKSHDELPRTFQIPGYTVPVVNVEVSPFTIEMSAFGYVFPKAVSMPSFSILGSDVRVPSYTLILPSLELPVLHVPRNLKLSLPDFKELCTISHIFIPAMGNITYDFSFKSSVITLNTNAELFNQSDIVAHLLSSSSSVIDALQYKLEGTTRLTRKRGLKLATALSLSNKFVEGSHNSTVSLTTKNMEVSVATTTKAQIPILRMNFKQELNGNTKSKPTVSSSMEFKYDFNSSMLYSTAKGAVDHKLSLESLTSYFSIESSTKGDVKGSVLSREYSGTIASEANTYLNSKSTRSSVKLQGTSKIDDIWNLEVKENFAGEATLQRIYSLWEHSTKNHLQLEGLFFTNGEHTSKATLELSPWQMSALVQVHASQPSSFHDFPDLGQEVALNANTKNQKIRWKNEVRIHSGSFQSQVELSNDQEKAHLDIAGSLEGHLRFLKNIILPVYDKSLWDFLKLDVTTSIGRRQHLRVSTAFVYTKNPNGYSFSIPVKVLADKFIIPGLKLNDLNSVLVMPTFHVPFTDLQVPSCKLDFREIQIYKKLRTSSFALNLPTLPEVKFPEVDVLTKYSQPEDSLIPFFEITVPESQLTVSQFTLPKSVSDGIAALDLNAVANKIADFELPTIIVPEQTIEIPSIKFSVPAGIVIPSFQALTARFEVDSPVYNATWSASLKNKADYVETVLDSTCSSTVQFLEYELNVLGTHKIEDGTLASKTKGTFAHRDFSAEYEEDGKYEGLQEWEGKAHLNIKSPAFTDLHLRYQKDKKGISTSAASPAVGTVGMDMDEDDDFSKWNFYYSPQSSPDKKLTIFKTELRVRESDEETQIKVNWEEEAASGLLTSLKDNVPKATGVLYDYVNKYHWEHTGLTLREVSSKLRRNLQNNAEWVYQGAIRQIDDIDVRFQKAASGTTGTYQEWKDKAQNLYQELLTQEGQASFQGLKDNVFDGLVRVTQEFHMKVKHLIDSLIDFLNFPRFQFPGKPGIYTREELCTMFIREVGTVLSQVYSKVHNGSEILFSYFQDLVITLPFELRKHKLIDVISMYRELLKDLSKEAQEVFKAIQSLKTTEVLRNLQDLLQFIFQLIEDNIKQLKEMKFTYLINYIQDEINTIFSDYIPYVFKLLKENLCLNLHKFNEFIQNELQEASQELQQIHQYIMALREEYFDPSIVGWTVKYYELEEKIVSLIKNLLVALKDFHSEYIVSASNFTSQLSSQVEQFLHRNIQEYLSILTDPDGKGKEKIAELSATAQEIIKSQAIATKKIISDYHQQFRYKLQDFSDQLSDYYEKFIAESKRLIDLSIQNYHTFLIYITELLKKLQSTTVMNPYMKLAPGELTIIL
Description: The specificity of epitope expression changes by the monosuccinic acid ester of probucol were established by examining MSE's effects on other epitopes on LDL. This was probed by using four other monoclonal antibodies (1D, 2D8, 5E11, 4G3) in comparison to the Boehringer Mannheim (Band M) antibody used in the assays described above.

[3] = rabbit, in vivo, po, 150 mg/kg/day
Protocol: To examine if the monosuccinic acid ester of probucol partitions with plasma circulating lipoproteins, rabbits were fed a high-fat diet for six weeks and dosed with the compound at a dose of 150 mg/Kg per day orally. The animals were bled at six weeks and plasma lipoproteins isolated at high-speed using ultra-centrifugation.
Whole plasma was fractionated by fast phase liquid chromatography (FPLC) using a Superose 6HR 10/30 column. Elution was performed in a phosphate-buffered saline solution containing 0.01% EDTA and 0.02% NaN3 at a flow rate of 0.3 m/min. Approximately 0.6 ml was collected for each fraction and 20 fractions were available for analysis. The cholesterol content of the peaks corresponding to low density lipoprotein (LDL) and high density lipoprotein (HDL) were compared to CDC reference methods. VLDL corresponds to fractions 4-8 (elution volumes 7.2-9.6), LDL to fractions 9-16 (elution volume 10.2-14.4) and HDL to fractions 17-23 (elution volume 15-18.6).
The monosuccinic acid ester of probucol (MSE) levels in the different lipoprotein fractions were determined by high pressure liquid chromatography (HPLC) using a Rainin C 18 column (830201-C). Fractions corresponding to the different lipoprotein fractions were pooled and dried down by centrifugation under vacuum and resuspended in 0.5 ml of phosphate buffered saline. MSE was extracted with 0.5 ml of ether. 100 ul of the ether solution was added to 400 ul of acetonitrile and 0.02 ml was loaded onto the column. The mobile phase was 75:20:5 acetonitrile, methanol, and 50 mM acetic acid in methanol.
The amount of the MSE bound to each of the lipoproteins was estimated.

apoB-100 epitope in VLDL = target: T3, apoB-100 epitope in VLDL (Homo sapiens, UniProt P04114); test: Immunoreactivity sandwich ELISA with VLDL; assay type: binding; conditions: FIG. 6b
T3 construct: relative to the native VLDL; from tissue; host or cells: VLDL particles (plasma lipoprotein)
T3 sequence (P04114 28-4563): as above
Description: To determine if the binding of the monosuccinic acid ester to VLDL and LDL can cause a change in the structure of apoB-100, an immunoreactivity assay was designed. This is a sandwich ELISA assay which measures the expression of a specific epitope on apoB-100. Essentially the sandwich ELISA consists of a specific monoclonal antibody directed to that epitope on apoB-100 as a capture antibody laid onto a microtitre plate. LDL or VLDL added to the plate is bound to the antibody as a result of recognition of the specific epitope. A second polyclonal antibody is then used to quantify the amount of LDL captured.

purified human LDL = target: T4, purified human LDL (Homo sapiens, UniProt P04114); test: Agarose electrophoresis of purified human LDL mixed with compound; assay type: binding
T4 construct: from tissue; host or cells: human LDL particles (plasma lipoprotein)
T4 sequence (P04114 28-4563): as above
Protocol: Agarose electrophoresis is a technique used to separate and study lipoproteins. The monosuccinic acid ester of probucol was added to purified human LDL and the mixture was run on agarose electrophoresis.

VLDL and LDL clearance = test: Lipoprotein turnover study in monkeys (stable isotope labelling of apoB-100); assay type: in vivo, monkey; conditions: monkeys, 25 mg/kg/day
Protocol: A lipoprotein turnover study was performed in monkeys that were dosed with the monosuccinic acid ester of probucol (25 mg/kg/day for one four weeks). The clearance rates of VLDL and LDL were examined before and after treatment of the animals using a stable isotope technique to label apoB-100 in VLDL and LDL.

HepG2 cells = test: Uptake of radioiodinated human LDL by HepG2 cells; assay type: cell-based; conditions: HepG2, 24 h
Protocol: In order to test whether the change in structure of LDL by the monosuccinic acid ester of probucol can affect the uptake of this lipoprotein by liver cells in vitro, purified human radioiodinated LDL was mixed with various concentrations of the probucol derivative and incubated for 15 minutes at room temperature. After that, the mixture of LDL and the probucol derivative was added to HepG2 cells in culture and the uptake of radiolabeled LDL measured after 24 h. At each concentration of compound, the specific uptake of LDL was also determined by examining LDL uptake in the presence of excess unlabeled LDL.

T1 sequence (P04114 28-4563): as above

Structure (SMILES): CC(C)(Sc1cc(C(C)(C)C)c(O)c(C(C)(C)C)c1)Sc1cc(C(C)(C)C)c(OC(=O)CCC(=O)O)c(C(C)(C)C)c1 [MSE, Butanedioic acid, mono[4-[[1-[[3,5-bis(1,1-dimethylethyl)-4-hydroxyphenyl]thio]-1-methylethyl]thio]-2,6-bis(1,1-dimethylethyl)phenyl] ester]
- increase of binding of LDL to the capture monoclonal antibody ([1]; 15 uM): 300%
- increase of binding of LDL to the capture monoclonal antibody ([1]; 30 uM): 500%
- epitope expression on LDL detected by the Boehringer Mannheim antibody ([1]; FIG. 7): significantly enhanced
- Cell-Free Assay ([1]; immunoreactivity cell-free assay of Example 3, yes/no): yes
- Hamster (plasma cholesterol): yes
- effect on total plasma cholesterol levels (total plasma cholesterol): did not result in any significant effects
- expression of epitopes detected by the other four antibodies against apoB-100 [2]: unaffected
- MSE recovered in the different lipoprotein fractions [3]: > 80%
- amount found in the non-lipoprotein plasma fraction [3]: Very little
- distribution of MSE among lipoprotein fractions [3]: most being found in the VLDL fraction, followed by LDL and some in IDL and HDL
- increase of binding of VLDL apoB-100 epitope to the antibody relative to native VLDL (apoB-100 epitope in VLDL): about 375%
- shift of electrophoretic mobility of LDL (purified human LDL): shifted the mobility of LDL
- LDL clearance rates (VLDL and LDL clearance): increased
- clearance of VLDL after treatment relative to before dosing (VLDL and LDL clearance): marked enhancement
- production of VLDL or LDL (VLDL and LDL clearance): no apparent effects
- increase of specific uptake of LDL relative to absence of MSE (HepG2 cells; 18 uM): 12.8%
- increase of specific uptake of LDL relative to absence of MSE (HepG2 cells; 25.5 uM): 77.6%
- increase of specific uptake of LDL relative to absence of MSE (HepG2 cells; 33 uM): 249%
